Earlier results as cited in patent publication US10918652B2, “Compositions for the treatment of dermatological diseases and disorders” (CLARIDEI LABORATORIES, INC., priority 2014, dated 2021).

Details: cited from Ramachandran et al. 2006

SMILES: O=C(O)[C@H](O)[C@@H](O)[C@H](O)[C@H](O)CO [Gluconic acid]
- pKa: 3.7
